# Test results taken from publication PMC9833666, “Designing and identifying β-hairpin peptide macrocycles with antibiotic potential” (Science Advances, 2023).
# Entries after “also recorded” stand apart in the source; their conditions may differ. Like-named read-outs stand apart in the source and are kept apart here. Bridge positions count the residues as written; N and C are the ends. Ends that are not written are not given here. Peptide text beside a SMILES is read from it.
# Assays:
# [1] = tested on: gram-positive and gram-negative pathogens, including colistin-resistant strains; test: MIC against pathogen panel (tables S4 and S5, not shown); assay type: cell-based
# Experimental: MICs were performed by a modifiedClinical and Laboratory Standards Institute) procedure. Stock peptides were diluted to 2.56 mg/ml in 50 μl of 0.01% acetic acid containing 0.2% bovine serum albumin. Peptide was then serially diluted twofold in this solution, and 10 μl of each dilution was added to a polypropylene 96-well plate (Corning, ref. no. 3879) in triplicate. Separately, E. coli W3110 or A. baumannii AB5075 was grown overnight in 5 ml of standard MH at 37°C. Cells from these cultures were diluted to a concentration of 5 × 10^5 to 6 × 10^5 cells/ml in either standard MH, MHII, RPMI, or fetal bovine serum, and 90 μl was added to each well of the 96-well plate containing diluted peptide. Plates were wrapped twice in parafilm and incubated at 37°C for 18 to 24 hours. Wells were examined by eye against wells with no bacteria for signs of growth. MICs were reported as the minimum concentration with no observable growth. In cases where triplicate samples differed, the concentration supported by the median of the three replicates was reported.
# A. baumannii 17978 Lab Stock
# A. baumannii 17978 R2 Lab Stock
# V. cholerae C6706 Lab Stock
# P. aeruginosa ATCC 27853 ATCC
# K. pneumonia ATCC 1705 ATCC
# S. aureus USA100 Lab Stock
# Excel spreadsheet with chemically synthesized peptide properties and biochemical data.
# Excel spreadsheet with all SynCH SLAY data analysis and potency score predictions
# [2] = tested on: Single-donor human red blood cells; test: Hemolysis assay; assay type: cell-based
# Outline: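 Peptides at 300 μg/ml (SySA library) or 128 μg/ml (SySA-5 optimization library) were incubated in triplicate with washed single-donor RBCs (1 × 10^9 cells/ml) for 3 h at 37 °C. Supernatant A540 was background-normalized to PBS and expressed relative to 1% Triton X-100 (100% hemolysis).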
# [3] = tested on: Acinetobacter baumannii AB5075
# Escherichia coli W3110 = assay type: cell-based; conditions: for Ec W3110 MIC MH: E. coli W3110, MH medium; for W3110 MIC MHII: E. coli W3110, MHII medium; for Ec W3110 MIC RPMI: E. coli W3110, RPMI medium
# [4] = High-resolution LC-MS, percentage with intramolecular disulfide bond (%S-S); assay type: physicochemical
# Experimental: Stock peptides were diluted into PBS (pH 7.4) at 0.1 mg/ml in a volume of 150 μl and placed into 2-ml autosampler vials with small volume inserts (Fisherbrand, 03-391-8). Samples were separated by a C8 LC column, and an extracted ion chromatogram was generated for the most prevalent charge state isotopes. Mass spectra were generated for each extracted LC peak using an Agilent Technologies 6546 Accurate Mass quadrupole orthogonal acceleration–time-of-flight LC-MS instrument. Analysis was performed using Agilent MassHunter Qualitative software v10. The isotope distribution for each LC peak from each sample was compared to predicted distributions created using Agilent’s Isotope Distribution Calculator. Percentages of molecules with disulfide bonds was determined by comparing the area under the curve for each LC peak containing a disulfide bond over the total area of all relevant peaks (sum area %) and reported as a mean of three technical replicates ± 1 SD.
# [5] = Circular dichroism (CD) spectroscopy (secondary structure, aggregation); assay type: physicochemical; conditions: CD at 450 µg/ml to 50 µg/ml, 10 mM potassium phosphate pH 7.4
# [6] = 100% fetal bovine serum, replicate 1
# [7] = 100% fetal bovine serum, replicate 2
# [8] = 100% fetal bovine serum, replicate 3
Molecule,"AB5075 MIC FBS [3, 6] [µg/mL]","AB5075 MIC FBS [3, 7] [µg/mL]","AB5075 MIC FBS [3, 8] [µg/mL]","AB5075 MIC MH ([3]; Mueller-Hinton, replicate 1) [µg/mL]","AB5075 MIC MH ([3]; Mueller-Hinton, replicate 2) [µg/mL]","AB5075 MIC MH ([3]; Mueller-Hinton, replicate 3) [µg/mL]",Ec W3110 MIC MH (Escherichia coli W3110) [µg/mL],W3110 MIC MHII (Escherichia coli W3110) [µg/mL],Ec W3110 MIC RPMI (Escherichia coli W3110) [µg/mL],W3110 MIC RPMI (Escherichia coli W3110; W3110) [µg/mL],%S-S [4] [%],further results
"CC(C)C[C@@H]1NC(=O)[C@H](CCCNC(=N)N)NC(=O)[C@H](C(C)C)NC(=O)[C@H](CCCCN)NC(=O)[C@@H]2CSSC[C@H](NC(=O)[C@H](CCCNC(=N)N)NC(=O)[C@H](CC(C)C)NC(=O)[C@H](CCCNC(=N)N)NC(=O)[C@H](C(C)C)NC(=O)[C@H](CCCNC(=N)N)NC(=O)[C@@H](N)CSSC[C@@H](C(=O)O)NC(=O)[C@H](CCCNC(=N)N)NC1=O)C(=O)N[C@@H](CCCNC(=N)N)C(=O)N[C@@H](CCCNC(=N)N)C(=O)N[C@@H](CCCNC(=N)N)C(=O)N[C@@H](CCCNC(=N)N)C(=O)N2 [SySA-5.17] (H-CRVRLRCRRRRCKVRLRC-OH; disulfide 1-18, 7-12 (inferred); N-terminus and C-terminus assumed)",32,32,32,4,4,4,–,–,–,–,–,"spectrum of activity [1]: broad-spectrum activity; fold less hemolytic (toxicity) than Protegrin-1 ([2]; hemolysis at 128 µg/ml): over 10 fold; Fold Change Hemolysis ([2]; hemolysis at 128 µg/ml, fold change relative to SySA-5): 2.4; fold less hemolytic (toxicity) than Protegrin-1 ([2]; hemolysis at 128 µg/ml, listed as SySA 5.17): greater than ten-fold; AB5075 MIC FBS ([3]; 100% fetal bovine serum, median of triplicate): 32 µg/mL"
CC(C)C[C@@H]1NC(=O)[C@H](CCCNC(=N)N)NC(=O)[C@H](C(C)C)NC(=O)[C@H](CCCNC(=N)N)NC(=O)[C@H](CC(C)C)NC(=O)[C@@H](N)CSSC[C@@H](C(=O)O)NC(=O)[C@H](C(C)C)NC(=O)[C@H](CCC(N)=O)NC(=O)[C@H](CC(C)C)NC(=O)[C@H](CO)NC(=O)[C@H](C(C)C)NC(=O)[C@H](CCCCN)NC(=O)[C@H](C(C)C)NC(=O)[C@H](CCCNC(=N)N)NC(=O)CNC(=O)[C@H](CCCNC(=N)N)NC(=O)[C@H](CCCNC(=N)N)NC(=O)[C@H](CC(N)=O)NC(=O)[C@H](CC(N)=O)NC1=O [SySA-5] (H-CLRVRLNNRRGRVKVSLQVC-OH; disulfide 1-20; N-terminus and C-terminus assumed),>128,>128,>128,64,32,32,16,128,4,4,100,"W3110 MIC MH (Escherichia coli W3110; E. coli W3110, standard Mueller-Hinton broth, 37°C, 18-24 h, median of n=3): 16 µg/mL; AB5075 MIC FBS ([3]; AB5075): > 128 µg/mL; AB5075 MIC MH ([3]; AB5075): 32 µg/mL"
CC[C@H](C)[C@@H]1NC(=O)[C@H](CCCCN)NC(=O)[C@H](C(C)C)NC(=O)CNC(=O)[C@H](CCCNC(=N)N)NC(=O)[C@H](CCCNC(=N)N)NC(=O)[C@H](CCCNC(=N)N)NC(=O)[C@H](CC(N)=O)NC(=O)[C@H](CC(N)=O)NC(=O)[C@H](CC(C)C)NC(=O)[C@H](CCCNC(=N)N)NC(=O)[C@H](C(C)C)NC(=O)[C@H](CCCNC(=N)N)NC(=O)[C@H](C(C)C)NC(=O)[C@@H](N)CSSC[C@@H](C(=O)O)NC(=O)[C@H](C(C)C)NC(=O)[C@H](CCC(N)=O)NC(=O)[C@H](CC(C)C)NC(=O)[C@H](CO)NC1=O [SySA-49] (H-CVRVRLNNRRRGVKISLQVC-OH; disulfide 1-20; N-terminus and C-terminus assumed),–,–,–,–,–,–,32,> 128,8,8,91.4,W3110 MIC MH (Escherichia coli W3110; W3110): 32 µg/mL; molar ellipticity of CD spectrum at different concentrations (aggregation) [5]: remained relatively constant regardless of increased concentration; also recorded: equivalent at increased and reduced concentrations
RGGRLCYCRRRFCVCVGR (disulfide (positions not given here)) [Protegrin],–,–,–,–,–,–,0.5,8,0.5,–,100,hemolysis [2]: 41.84%
